Source: article PMC3001719, “The heme sensing response regulator HssR in Staphylococcus aureus but not the homologous RR23 in Listeria monocytogenes modulates susceptibility to the antimicrobial peptide plectasin” (BMC Microbiology, 2010)

Legend:
[1] = system: S. aureus wild type and response regulator mutants; test: Antibiotic susceptibility, commercial MIC technique (Trek); format: cell-based, Staphylococcus aureus; settings: dehydrated antimicrobials in microtitre wells, data not shown
Procedure: (§1) Antimicrobial susceptibility to ampicillin, gentamicin, sulfa/trimethoprim, rifampicin, tetracycline, amoxy/clavulan, cephalotin, clindamycin, enrofloxacin, fusidic acid and oxacillin was performed with a commercially available MIC technique using dehydrated antimicrobials in microtitre wells (Trek Diagnostic Systems Ltd., UK).

[2] = system: L. monocytogenes wild type and response regulator mutant; test: as above; format: cell-based, Listeria monocytogenes; settings: dehydrated antimicrobials in microtitre wells, data not shown
Procedure: as §1

[3] = system: S. aureus 15981 wild type; test: MIC, microbroth dilution; format: cell-based, Staphylococcus aureus; settings: MHB pH 7.4, 5.0 × 10^5 CFU/ml, 18-24 h at 37°C, visual growth
Procedure: (§2) Protamine was purchased from Sigma (P4020-5G). Plectasin, eurocin, novicidin, and novispirin G10 were supplied by Department of Antiinfective Discovery, Novozymes A/S. The host defence peptides were dissolved in 0.01% acetic acid/0.1% bovine serum albumin (Sigma, A7906).
(§3) Minimal inhibitory concentrations (MIC) of plectasin, eurocin, protamine, novicidin, and novispirin G10 were determined using a microbroth dilution method. Colonies from a BHI plate incubated overnight at 37 °C were suspended in MHB pH 7.4 to an absorbance at 546 nm of 0.11-0.12 at 546 nm (approx. 1.0 × 10^8 CFU/ml) and diluted in MHB to a concentration of 5.0 × 10^5 CFU/ml. Ninety μl of bacterial suspension was incubated with 10 μl of peptide solution in polypropylene 96-well plates (Nunc, 442587) for 18-24 h at 37°C. The peptide solutions were made fresh on the day of assay. The range of concentrations assayed were 0.25-256 μg/ml for plectasin and eurocin, 0.125-128 μg/ml for protamine and novispirin G10, and 0.031-32 μg/ml for novicidin. MIC was the lowest peptide concentration at which visual growth was inhibited.

[4] = system: S. aureus 15981 ΔTCS15 (hssRS) deletion mutant; test: MIC, microbroth dilution; format: cell-based, Staphylococcus aureus; settings: MHB pH 7.4, 5.0 × 10^5 CFU/ml, 18-24 h at 37°C, visual growth
Procedure: as §2, §3

[5] = system: S. aureus 8325-4 hssR (transduced mutant); test: MIC, microbroth dilution; format: cell-based, Staphylococcus aureus; settings: transduced 8325-4 hssR mutant, MHB pH 7.4, 5.0 × 10^5 CFU/ml, 18-24 h at 37°C, visual growth
Procedure: as §2, §3

[6] = system: S. aureus 8325-4 hssR::bursa transposon mutant; test: MIC, microbroth dilution; format: cell-based, Staphylococcus aureus; settings: MHB pH 7.4, 5.0 × 10^5 CFU/ml, 18-24 h at 37°C, visual growth
Procedure: as §2, §3

[7] = system: S. aureus 8325-4 hssR::bursa/pRMC2-hssRS (complementation of hssR transposon mutant); test: MIC, microbroth dilution; format: cell-based, Staphylococcus aureus; settings: 8325-4 hssR::bursa/pRMC2-hssRS complemented mutant; microbroth dilution, MHB pH 7.4, 5.0 × 10^5 CFU/ml, 18-24 h at 37°C, visual growth
Procedure: as §2, §3

[8] = system: S. aureus 8325-4 wild type; test: MIC, microbroth dilution; format: cell-based, Staphylococcus aureus; settings: MHB pH 7.4, 5.0 × 10^5 CFU/ml, 18-24 h at 37°C, visual growth
Procedure: as §2, §3

[9] = system: L. monocytogenes LO28 wild type; test: MIC, microbroth dilution; format: cell-based, Listeria monocytogenes; settings: MHB pH 7.4, 5.0 × 10^5 CFU/ml, 18-24 h at 37°C, visual growth
Procedure: as §2, §3

[10] = system: S. aureus; test: ATP leakage (intracellular and extracellular ATP, bioluminescence); format: cell-based, Staphylococcus aureus; settings: 50 mM HEPES pH 7.0 with 0.2% glucose, vs peptide dilution buffer, two independent experiments; for ATP leakage: S. aureus, 1,000 μg/ml peptide
Procedure: (§4) L. monocytogenes and S. aureus were grown in TSB at 37°C. Bacteria were harvested (10 min at 3000 RPM) at mid-exponential phase (absorbance at 546 nm of 2.5 ± 0.2 and 1.0 ± 0.2 for S. aureus and L. monocytogenes, respectively), washed once in 50 mM potassium phosphate buffer pH 7.0 and once in 50 mM HEPES buffer pH 7.0. The pellet was resuspended in 50 mM HEPES pH 7.0 to a final absorbance at 546 nm of 10. Bacteria were stored on ice and used within 5 hours. […] ATP was determined using a bioluminescence kit (Sigma, FLAA-1KT) and a BioOrbit 1253 luminometer. Total ATP content was determined by rapidly permeabilising 20 μl cell suspension with 80 μl dimethyl sulfoxide. The cell suspension was diluted in 4.9 ml sterile water, and ATP content was determined in 100 μl of the preparation as described by the manufacturer. To determine the extracellular ATP concentration, the 20 μl cell suspension was mixed with 80 μl sterile water and analyzed as described above. Intracellular ATP concentrations were calculated by using the intracellular volumes of 0.85 and 1.7 μm^3 for S. aureus and L. monocytogenes, respectively. The number of cells in suspension was determined by plate spreading.

[11] = system: L. monocytogenes; test: as above; format: cell-based, Listeria monocytogenes; settings: 50 mM HEPES pH 7.0 with 0.2% glucose, vs peptide dilution buffer; for ATP leakage: L. monocytogenes, 1,000 μg/ml peptide
Procedure: as §4

[12] = system: plasmid DNA (pBluescript II SK+); test: DNA-binding analysis by in vitro gel retardation; settings: 100 ng plasmid DNA with increasing amounts of peptide, 1 h at room temperature, data not shown
Procedure: Gel retardation analysis were performed as described by Nan et al by mixing 100 ng of plasmid DNA (pBluescript II SK^+(Stratagene)) with increasing amounts of peptide in 20 μl binding buffer (5% glycerol, 10 mM Tris, 1 mM EDTA, 1 mM dithiothreitol, 20 mM KCL and 50 μg ml^-1 bovine serum albumin). Reaction mixtures were incubated 1 h at room temperature and subjected to 1% agarose gel electrophoresis and visualised using ethidium bromide.

[13] = system: S. aureus 8325-4 hssR mutant; test: Growth in TSB with plectasin and/or hemin; format: cell-based, Staphylococcus aureus; settings: hemin 4 μM, 37°C, with or without plectasin, hssR mutant
Procedure: (§5) Overnight cultures of S. aureus were diluted to an absorbance at 600 nm of 0.05 in TSB with and without 4 μM hemin and/or 35 μg/ml plectasin and grown at 37°C. Measurements of the absorbance were made every 30 minutes.

[14] = system: S. aureus 8325-4 wild type; test: Growth in TSB with plectasin and/or hemin; format: cell-based, Staphylococcus aureus; settings: hemin 4 μM, 37°C, absorbance at 600 nm
Procedure: as §5

[15] = system: hrtAB efflux system expression; settings: exposure to hemin, transcriptional activation by HssR; cited from earlier work
Source text: Both HrtAB and HssRS are required for growth of S. aureus in hemin [14].

[16] = system: L. monocytogenes LO28 RR23 (rr23 insertion mutant); test: MIC, microbroth dilution; format: cell-based, Listeria monocytogenes; settings: MHB pH 7.4, 5.0 × 10^5 CFU/ml, 18-24 h at 37°C, visual growth
Procedure: as §2, §3

Compound: CC1(C)S[C@@H]2[C@H](NC(=O)[C@H](N)c3ccccc3)C(=O)N2[C@H]1C(=O)O [ampicillin]
- Change in MIC, wild type vs response regulator mutants [1]: No change in MIC values
- Change in MIC, wild type vs response regulator mutant [2]: No change in MIC values

Compound: CC(=O)OCC1=C(C(=O)O)N2C(=O)[C@@H](NC(=O)Cc3cccs3)[C@H]2SC1 [cephalotin]
- Change in MIC, wild type vs response regulator mutants [1]: No change in MIC values
- Change in MIC, wild type vs response regulator mutant [2]: No change in MIC values

Compound: CCC[C@@H]1C[C@@H](C(=O)N[C@@H]([C@H]2O[C@H](SC)[C@H](O)[C@@H](O)[C@H]2O)[C@H](C)Cl)N(C)C1 [clindamycin]
- Change in MIC, wild type vs response regulator mutants [1]: No change in MIC values
- Change in MIC, wild type vs response regulator mutant [2]: No change in MIC values

Compound: CCN1CCN(c2cc3c(cc2F)c(=O)c(C(=O)O)cn3C2CC2)CC1 [enrofloxacin]
- Change in MIC, wild type vs response regulator mutants [1]: No change in MIC values
- Change in MIC, wild type vs response regulator mutant [2]: No change in MIC values

Compound: CC(=O)O[C@H]1C[C@@]2(C)[C@@H](C[C@@H](O)[C@H]3[C@@]4(C)CC[C@@H](O)[C@@H](C)[C@@H]4CC[C@@]32C)/C1=C(\CCC=C(C)C)C(=O)O [fusidic acid]
- Change in MIC, wild type vs response regulator mutants [1]: No change in MIC values
- Change in MIC, wild type vs response regulator mutant [2]: No change in MIC values

Compound: CNC(C)C1CCC(N)C(OC2C(N)CC(N)C(OC3OCC(C)(O)C(NC)C3O)C2O)O1 (centres unmarked) [gentamicin]
- Change in MIC, wild type vs response regulator mutants [1]: No change in MIC values
- Change in MIC, wild type vs response regulator mutant [2]: No change in MIC values

Compound: Cc1onc(-c2ccccc2)c1C(=O)N[C@@H]1C(=O)N2[C@@H]1SC(C)(C)[C@@H]2C(=O)O [oxacillin]
- Change in MIC, wild type vs response regulator mutants [1]: No change in MIC values
- Change in MIC, wild type vs response regulator mutant [2]: No change in MIC values

Compound: CO[C@H]1/C=C/O[C@@]2(C)Oc3c(C)c(O)c4c(O)c(c(/C=N/N5CCN(C)CC5)c(O)c4c3C2=O)NC(=O)/C(C)=C\C=C\[C@H](C)[C@H](O)[C@@H](C)[C@@H](O)[C@@H](C)[C@H](OC(C)=O)[C@@H]1C [rifampicin]
- Change in MIC, wild type vs response regulator mutants [1]: No change in MIC values
- Change in MIC, wild type vs response regulator mutant [2]: No change in MIC values

Compound: CN(C)[C@@H]1C(O)=C(C(N)=O)C(=O)[C@@]2(O)C(O)=C3C(=O)c4c(O)cccc4[C@@](C)(O)[C@H]3C[C@@H]12 [tetracycline]
- Change in MIC, wild type vs response regulator mutants [1]: No change in MIC values
- Change in MIC, wild type vs response regulator mutant [2]: No change in MIC values

Compound: eurocin
- MIC [3]: 8 µg/mL
- MIC [4]: 32 µg/mL
- MIC [5]: 64 µg/mL
- MIC [6]: 64 µg/mL
- MIC [7]: 32 µg/mL
- MIC [8]: 32 µg/mL
- MIC [9]: 128 µg/mL
- ATP leakage (intracellular ATP concentration) ([10]; S. aureus, 500 μg/ml peptide): remained at the same level as the controls
- ATP leakage (intracellular ATP concentration) ([11]; L. monocytogenes, 500 μg/ml peptide): remained at the same level as the controls
- Binding to DNA [12]: unable to demonstrate binding

Compound: hemin
- Growth in the presence of hemin [13]: almost completely inhibited
- Growth in the presence of hemin [14]: only affected by plectasin (35 μg/ml) and not hemin
- Increase of expression of hrtAB efflux system [15]: 45 fold

Compound: novicidin
- MIC [3]: 1 µg/mL
- MIC [4]: 1 µg/mL
- MIC [5]: 1 µg/mL
- MIC [6]: 1 µg/mL
- MIC [8]: 1 µg/mL
- MIC [16]: 1 µg/mL
- MIC [9]: 1 µg/mL
- ATP leakage [10]: increased ATP leakage
- ATP leakage [11]: increased ATP leakage

Compound: novispirin G10
- MIC [3]: >128 µg/mL
- MIC [8]: 128 µg/mL
- MIC [16]: 16 µg/mL
- MIC [9]: 16 µg/mL

Compound: protamine
- MIC [3]: 16 µg/mL
- MIC [4]: 16 µg/mL
- MIC [5]: 16 µg/mL
- MIC [6]: 16 µg/mL
- MIC [8]: 16 µg/mL
- MIC [16]: 16 µg/mL
- MIC [9]: 16 µg/mL
- ATP leakage [10]: increased ATP leakage
- ATP leakage [11]: increased ATP leakage
